# From article PMC8279416, “Structural Fine-Tuning of Desmuramylpeptide NOD2 Agonists Defines Their In Vivo Adjuvant Activity” (Journal of Medicinal Chemistry, 2021)
# Columns and labels:
# Type in all cases: cell-based
# NOD1 = molecular target: T1, NOD1 (Homo sapiens, UniProt Q9Y239); assay: HEK-Blue NOD1 cell line reporter assay (selectivity); conditions: HEK-Blue NOD1 cells, 2 μM, 18 h
# T1 construct: host or cells: HEK-Blue NOD1 cells (HEK293-derived)
# T1 sequence (Q9Y239 1-953): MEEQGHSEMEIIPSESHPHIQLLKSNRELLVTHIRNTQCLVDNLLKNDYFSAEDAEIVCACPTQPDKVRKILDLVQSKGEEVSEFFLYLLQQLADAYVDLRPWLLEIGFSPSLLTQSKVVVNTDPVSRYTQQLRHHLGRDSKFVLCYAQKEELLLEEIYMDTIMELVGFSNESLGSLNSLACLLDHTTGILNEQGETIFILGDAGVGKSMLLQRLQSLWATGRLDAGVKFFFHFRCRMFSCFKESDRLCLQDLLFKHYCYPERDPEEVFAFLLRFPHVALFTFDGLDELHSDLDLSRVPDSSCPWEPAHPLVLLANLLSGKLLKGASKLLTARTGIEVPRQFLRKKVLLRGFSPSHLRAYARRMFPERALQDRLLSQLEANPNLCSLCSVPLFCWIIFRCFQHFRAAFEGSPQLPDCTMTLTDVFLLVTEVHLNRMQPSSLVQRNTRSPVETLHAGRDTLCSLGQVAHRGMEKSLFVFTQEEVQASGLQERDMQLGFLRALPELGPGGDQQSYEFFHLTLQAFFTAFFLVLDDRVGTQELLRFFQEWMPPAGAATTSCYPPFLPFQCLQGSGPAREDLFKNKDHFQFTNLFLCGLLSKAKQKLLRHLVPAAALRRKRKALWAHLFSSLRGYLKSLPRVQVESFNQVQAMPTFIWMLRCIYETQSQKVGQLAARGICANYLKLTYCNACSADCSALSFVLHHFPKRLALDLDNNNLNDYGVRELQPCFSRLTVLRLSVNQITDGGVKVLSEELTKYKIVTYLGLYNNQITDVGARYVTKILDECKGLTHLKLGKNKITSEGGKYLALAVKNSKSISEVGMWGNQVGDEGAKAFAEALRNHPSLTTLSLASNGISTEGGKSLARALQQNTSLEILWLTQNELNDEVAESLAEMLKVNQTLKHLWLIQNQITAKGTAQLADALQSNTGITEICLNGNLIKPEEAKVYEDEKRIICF
# Procedure: As NOD2 and NOD1 agonists share certain structural characteristics, we wanted to determine whether these compounds selectively target NOD2. Selectivity against NOD1 of MDP and all of these synthesized desmuramylpeptides was analyzed in an analogous assay with the HEK-Blue NOD1 cell line.
# (§1) HEK-Blue NOD2 and NOD1 cell line reporter assays are derived from HEK293 cells by cotransfection of the hNOD2 or hNOD1 genes, respectively, and an NF-κB-inducible secreted embryonic alkaline phosphatase (SEAP) reporter gene. Following activation of NOD2 or NOD1, the resulting NF-κB induces production of SEAP, the levels of which can be quantified colorimetrically. […] After 18 h of incubation (37 °C, 5% CO2), secreted embryonic alkaline phosphatase (SEAP) activity was determined spectrophotometrically as absorbance at 630 nm (BioTek Synergy microplate reader; Winooski, VT, U.S.A.). EC50 values were calculated using Prism software (version 9; GraphPad Software, CA, U.S.A.). For determination of specificity, HEK-Blue NOD2 cells (2.5 × 10^5 cells/mL) were first pretreated for 1 h with a 10 μM NOD2 antagonist, before the addition of the compounds (2 μM), with incubation for 18 h. SEAP activity in the supernatants was determined as above. The experiments were run in duplicate and repeated as at least two independent biological replicates.
# Supporting figure S2. NOD1 agonistic activities of desmuramylpeptides. […]
# NOD2 [1] = molecular target: T2, NOD2 (Homo sapiens, UniProt Q9HC29); assay: Specificity: NOD2 antagonist pretreatment of HEK-Blue NOD2 cells; conditions: 10 μM NOD2 antagonist 1 h, then 2 μM compound 18 h
# T2 construct: host or cells: HEK-Blue NOD2 cells (HEK293-derived)
# T2 sequence (Q9HC29 whole entry): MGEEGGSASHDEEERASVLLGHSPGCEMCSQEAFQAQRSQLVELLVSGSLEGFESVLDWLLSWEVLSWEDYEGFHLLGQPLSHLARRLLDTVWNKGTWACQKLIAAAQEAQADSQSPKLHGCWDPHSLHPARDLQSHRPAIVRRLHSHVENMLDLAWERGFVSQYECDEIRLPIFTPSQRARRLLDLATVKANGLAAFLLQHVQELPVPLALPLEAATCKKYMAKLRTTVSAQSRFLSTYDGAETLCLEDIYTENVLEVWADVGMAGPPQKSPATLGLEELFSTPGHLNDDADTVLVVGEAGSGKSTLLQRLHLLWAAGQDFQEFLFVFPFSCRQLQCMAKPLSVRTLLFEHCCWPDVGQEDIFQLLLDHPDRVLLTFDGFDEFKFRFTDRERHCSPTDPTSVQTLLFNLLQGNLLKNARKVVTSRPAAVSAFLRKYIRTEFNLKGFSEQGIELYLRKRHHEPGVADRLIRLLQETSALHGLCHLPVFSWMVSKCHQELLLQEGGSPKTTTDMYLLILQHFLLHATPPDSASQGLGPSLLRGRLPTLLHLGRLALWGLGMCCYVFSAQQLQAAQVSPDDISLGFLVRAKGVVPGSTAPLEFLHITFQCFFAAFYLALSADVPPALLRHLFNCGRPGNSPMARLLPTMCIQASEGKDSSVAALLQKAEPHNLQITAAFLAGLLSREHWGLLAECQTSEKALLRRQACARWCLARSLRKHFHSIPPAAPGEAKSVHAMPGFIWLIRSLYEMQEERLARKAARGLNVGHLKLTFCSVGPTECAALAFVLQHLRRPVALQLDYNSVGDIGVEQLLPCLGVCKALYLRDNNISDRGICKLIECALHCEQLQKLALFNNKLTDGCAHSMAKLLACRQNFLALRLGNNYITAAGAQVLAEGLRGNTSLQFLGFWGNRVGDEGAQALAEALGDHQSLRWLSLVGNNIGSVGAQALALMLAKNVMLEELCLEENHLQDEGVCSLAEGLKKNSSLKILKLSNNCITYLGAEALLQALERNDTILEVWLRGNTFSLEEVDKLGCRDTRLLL
# Procedure: Furthermore, the specificities were determined by pretreating HEK-Blue NOD2 cells with a previously reported NOD2 antagonist[77] prior to stimulation with MDP (2 μM) or the desmuramylpeptides (2 μM). The resulting NF-κB-induced SEAP activities were compared to those of the controls without the NOD2 antagonist pretreatment.
# as §1
# Supporting figure S2. […]
# NOD2 [2] = molecular target: T2, NOD2; assay: HEK-Blue NOD2 cell line reporter assay (NF-κB-inducible SEAP); conditions: HEK-Blue NOD2 cells, 18 h, mean ± SEM
smiles,measurement,setting,value
"CCOC(=O)CC[C@@H](NC(=O)[C@@H](NC(=O)CNC(=O)/C=C/c1ccc(O)c(O)c1)C(C)C)C(=O)OCC [Compound 21, Diethyl ((E)-3-(3,4-Dihydroxyphenyl)acryloyl)glycyl-L-valyl-D-glutamate]",NOD1 agonistic activity,NOD1,showed no activity in the NOD1 assay
same,NF-κB transcriptional activity after NOD2 antagonist pretreatment,NOD2 [1],reduced NOD2 activation
same,NOD2 activity at 2 μM (fold increase),"NOD2 [2]; 2 μM, NF-κB transcriptional (SEAP) activity relative to 0.1% DMSO",2.28 ± 0.07 fold increase
same,EC50,NOD2 [2]; 7 or 8 concentrations 1 nM to 20 μM,1730 ± 101 nM
